From patent publication US5869457A, “Modified proteins and their use for controlling viral infections” (Rijksuniversiteit Te Groningen, priority 1991, dated 1999)

Tests used:
[1] = system: OKT4A epitope of the CD4 receptor; experiment: CD4 immunofluorescence assay, OKT4A mAb-CD4 interaction on MT-4 cells; details: at 25 μg/ml
plasma = experiment: anticoagulant action determined as APTT; type: biochemical
Description: The compounds were dissolved in PBS of pH 7.2 and 30 μl were added to 270 μl of plasma.
APTT=activated partial thromboplastin time (seconds) APTT was determined electromechanically using standard methods.

Compound	inhibition of OKT4A mAb-CD4 interaction [1]	Anticoagulant action, APTT (plasma; 0.01 μg/ml) [s]	Anticoagulant action, APTT (plasma; 0.1 μg/ml) [s]	Anticoagulant action, APTT (plasma; 1 μg/ml) [s]	Anticoagulant action, APTT (plasma; 3 μg/ml) [s]	Anticoagulant action, APTT (plasma; 5 μg/ml) [s]	Anticoagulant action, APTT (plasma; 10 μg/ml) [s]	Anticoagulant action, APTT (plasma; 100 μg/ml) [s]	anticoagulant activity as side effect (plasma; in words)
O=C(O)C1=CC(=C(c2ccc(O)c(C(=O)O)c2)c2ccc(O)c(C(=O)O)c2)C=CC1=O [Aurintricarboxylic acid (ATA), Aurintricarboxylic acid]	completely inhibited	–	–	–	–	–	–	–	–
Heparin	–	38.4	40.3	40.5	65	140	220	> 400	serious anticoagulant activity
